Reference: PubChem BioAssay AID2060904 (Molecular Pharmacology Branch, DTP, NCI, 2025)
Blank lines part the entries; values can stand above or below the compound they belong to.

System: 349418-098-R-PDC complex spheroid viability
Test: Anticancer human tumor 349418-098-R-PDC patient-derived lung adenocarcinoma cell line growth inhibition [RAS]
Details: for IC50: curve of first compound; for viability, T/C: stronger effect = lower value
In short: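 Agents were tested in combination matrices in half-log decrements from a top concentration at or near clinical Cmax (10 microM if undetermined). Targets were multi-cell spheroids of tumour lines plus HUVEC and MSC stromal cells.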

[1] = second compound 0.000949 µM, first compound 0.0316 µM
[2] = second compound 0.000949 µM, first compound 0.1 µM
[3] = second compound 0.003 µM, first compound 0.0316 µM
[4] = second compound 0.003 µM, first compound 0.1 µM
[5] = second compound 0.00949 µM, first compound 0.0316 µM
[6] = second compound 0.00949 µM, first compound 0.1 µM
[7] = second compound 0.03 µM, first compound 0.0316 µM
[8] = second compound 0.03 µM, first compound 0.1 µM
[9] = second compound 0.0949 µM, first compound 0.0316 µM
[10] = second compound 0.0949 µM, first compound 0.1 µM
[11] = second compound 0.3 µM, first compound 0.0316 µM
[12] = second compound 0.3 µM, first compound 0.1 µM
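Further: spheroids exposed to compound for seven days before viability readout.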

- IC50 (second compound 0.000949 µM): 603 nM
- IC50 (second compound 0.003 µM): 357 nM
- IC50 (second compound 0.00949 µM): 501 nM
- IC50 (second compound 0.03 µM): 507 nM
- IC50 (second compound 0.0949 µM): 523 nM
- IC50 (second compound 0.3 µM): 352 nM
SMILES: CC(C)NCC(C(=O)N1CCN(c2ncnc3c2C(C)CC3O)CC1)c1ccc(Cl)cc1 (centres undefined) + CCn1c(-c2cccnc2C(C)OC)c2c3cc(ccc31)N1CCOC(CC(NC(=O)C(C(C)C)N(C)C(=O)C3(F)CCN(C(=O)C#CC(C)(C)N(C)C)CC3)C(=O)N3CCCC(N3)C(=O)OCC(C)(C)C2)C1
- viability, T/C [1]: 83.5%
- viability, T/C [2]: 88.7%
- viability, T/C (second compound 0.000949 µM, first compound 0.316 µM): 76%
- viability, T/C (second compound 0.000949 µM, first compound 1 µM): 29.1%
- viability, T/C (second compound 0.000949 µM, first compound 3.16 µM): 24.2%
- viability, T/C (second compound 0.000949 µM, first compound 10 µM): 10.7%
- viability, T/C [3]: 103%
- viability, T/C [4]: 60.9%
- viability, T/C (second compound 0.003 µM, first compound 0.316 µM): 51.6%
- viability, T/C (second compound 0.003 µM, first compound 1 µM): 48.1%
- viability, T/C (second compound 0.003 µM, first compound 3.16 µM): 18.7%
- viability, T/C (second compound 0.003 µM, first compound 10 µM): 10.2%
- viability, T/C [5]: 101%
- viability, T/C [6]: 85.7%
- viability, T/C (second compound 0.00949 µM, first compound 0.316 µM): 58.9%
- viability, T/C (second compound 0.00949 µM, first compound 1 µM): 35%
- viability, T/C (second compound 0.00949 µM, first compound 3.16 µM): 19.6%
- viability, T/C (second compound 0.00949 µM, first compound 10 µM): 8.77%
- viability, T/C [7]: 97.6%
- viability, T/C [8]: 86.8%
- viability, T/C (second compound 0.03 µM, first compound 0.316 µM): 56.8%
- viability, T/C (second compound 0.03 µM, first compound 1 µM): 33.3%
- viability, T/C (second compound 0.03 µM, first compound 3.16 µM): 28.5%
- viability, T/C (second compound 0.03 µM, first compound 10 µM): 8.92%
- viability, T/C [9]: 83.3%
- viability, T/C [10]: 75.5%
- viability, T/C (second compound 0.0949 µM, first compound 0.316 µM): 62.9%
- viability, T/C (second compound 0.0949 µM, first compound 1 µM): 32.5%
- viability, T/C (second compound 0.0949 µM, first compound 3.16 µM): 24.2%
- viability, T/C (second compound 0.0949 µM, first compound 10 µM): 8.81%
- viability, T/C [11]: 94.9%
- viability, T/C [12]: 76.7%
- viability, T/C (second compound 0.3 µM, first compound 0.316 µM): 46.5%
- viability, T/C (second compound 0.3 µM, first compound 1 µM): 34.3%
- viability, T/C (second compound 0.3 µM, first compound 3.16 µM): 27.5%
- viability, T/C (second compound 0.3 µM, first compound 10 µM): 11%

- IC50 (second compound 0.000949 µM): 1.3 nM
- IC50 (second compound 0.003 µM): 2.1 nM
- IC50 (second compound 0.00949 µM): 2.58 nM
- IC50 (second compound 0.03 µM): 2.86 nM
- IC50 (second compound 0.0949 µM): 1.42 nM
- IC50 (second compound 0.3 µM): 1.48 nM
SMILES: CC(C)n1nc(-c2ccc3oc(N)nc3c2)c2c(N)ncnc21 + CCn1c(-c2cccnc2C(C)OC)c2c3cc(ccc31)N1CCOC(CC(NC(=O)C(C(C)C)N(C)C(=O)C3(F)CCN(C(=O)C#CC(C)(C)N(C)C)CC3)C(=O)N3CCCC(N3)C(=O)OCC(C)(C)C2)C1
- viability, T/C (second compound 0.000949 µM, first compound 0.000316 µM): 97.3%
- viability, T/C (second compound 0.000949 µM, first compound 0.001 µM): 54.3%
- viability, T/C (second compound 0.000949 µM, first compound 0.00316 µM): 33.3%
- viability, T/C (second compound 0.000949 µM, first compound 0.01 µM): 10.8%
- viability, T/C [1]: 6.42%
- viability, T/C [2]: 5.48%
- viability, T/C (second compound 0.003 µM, first compound 0.000316 µM): 91.7%
- viability, T/C (second compound 0.003 µM, first compound 0.001 µM): 70.3%
- viability, T/C (second compound 0.003 µM, first compound 0.00316 µM): 39.7%
- viability, T/C (second compound 0.003 µM, first compound 0.01 µM): 12.8%
- viability, T/C [3]: 6.14%
- viability, T/C [4]: 5.04%
- viability, T/C (second compound 0.00949 µM, first compound 0.000316 µM): 91.2%
- viability, T/C (second compound 0.00949 µM, first compound 0.001 µM): 82.2%
- viability, T/C (second compound 0.00949 µM, first compound 0.00316 µM): 42.7%
- viability, T/C (second compound 0.00949 µM, first compound 0.01 µM): 13.9%
- viability, T/C [5]: 6.63%
- viability, T/C [6]: 5.25%
- viability, T/C (second compound 0.03 µM, first compound 0.000316 µM): 98.7%
- viability, T/C (second compound 0.03 µM, first compound 0.001 µM): 81.4%
- viability, T/C (second compound 0.03 µM, first compound 0.00316 µM): 47.7%
- viability, T/C (second compound 0.03 µM, first compound 0.01 µM): 16.8%
- viability, T/C [7]: 6.13%
- viability, T/C [8]: 5.01%
- viability, T/C (second compound 0.0949 µM, first compound 0.000316 µM): 90.4%
- viability, T/C (second compound 0.0949 µM, first compound 0.001 µM): 55.9%
- viability, T/C (second compound 0.0949 µM, first compound 0.00316 µM): 35.7%
- viability, T/C (second compound 0.0949 µM, first compound 0.01 µM): 13.3%
- viability, T/C [9]: 7.14%
- viability, T/C [10]: 4.64%
- viability, T/C (second compound 0.3 µM, first compound 0.000316 µM): 67.4%
- viability, T/C (second compound 0.3 µM, first compound 0.001 µM): 64.7%
- viability, T/C (second compound 0.3 µM, first compound 0.00316 µM): 22%
- viability, T/C (second compound 0.3 µM, first compound 0.01 µM): 10.9%
- viability, T/C [11]: 6.85%
- viability, T/C [12]: 4.69%
